Results on 12 compounds are retold here after ChEMBL document CHEMBL1201862, “PubChem BioAssay data set” (2004).

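How tested: cells in 96-well plates exposed to compound for 48 hours at five concentrations. Here, GI50 denotes the concentration required for 50% inhibition of growth.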 Calls of active or inactive are those of the source. Rule as the data show it: active = GI50 up to about 1.1 µM and inactive = higher. A value given as a limit tells only on which side of the number the result lay.

Test systems include A549; CCRF-CEM; EKVX; HCT-116; HOP-92; M14; MDA-N; MOLT-4; Malme-3M; NCI-H522; OVCAR-3; OVCAR-4; SF-268; SF-539; SN12C; CAKI-1; NCI/ADR-RES; SNB-75; UACC-62.
Test in all cases: inhibition of tumour cell growth, NCI panel, 48 h

Turning to `CC(C)C1=CC23CCC4C(C)(C(=O)O)CCCC4(C)C2CC1C1C(=O)N(c2ccc(N4C(=O)C5C6CC7C8(C)CCCC(C)(C(=O)O)C8CCC7(C=C6C(C)C)C5C4=O)cc2)C(=O)C13` (stereo unspecified), the GI50 in the assay on A549 is 6.1 µM (inactive); in the assay with CCRF-CEM it was 3.85 µM (inactive); in the assay on EKVX it was 4.09 µM (inactive); in the assay on HCT-116, 3.38 µM (inactive); in the assay with HOP-92, 14.7 µM (inactive); in the assay on M14, 4.16 µM (inactive). Moreover, the GI50 is 4.43 µM (inactive) in the assay on MDA-N; 3.51 µM (inactive) with MOLT-4; 14.1 µM (inactive) in the assay with Malme-3M; 4.98 µM (inactive) in the assay with NCI-H522; 5.71 µM (inactive) in the assay on OVCAR-3; 10.4 µM (inactive) in the assay on OVCAR-4. Further, the GI50 with SF-268 was 4.7 µM (inactive); in the assay on SF-539, 4.3 µM (inactive); with SN12C it was 4.46 µM (inactive).
As to `CCCC(=O)Nc1cc(/C=C/C(=O)N2CC(CCl)c3ccc([N+](=O)[O-])cc32)n(C)c1` (stereo unspecified), the GI50 in the assay on A549 was 58.3 µM (inactive); in the assay on CAKI-1, 57.5 µM (inactive); in the assay with CCRF-CEM it was 0.568 µM (active); in the assay with EKVX, > 100 µM (inactive); with HCT-116, 56 µM (inactive); in the assay on M14, > 100 µM (inactive). Besides, the GI50 in the assay with MDA-N was > 100 µM (inactive); in the assay on Malme-3M, > 100 µM (inactive); with NCI-H522 it was 28.8 µM (inactive); in the assay on NCI/ADR-RES, 30.7 µM (inactive); with OVCAR-3, > 100 µM (inactive); in the assay with OVCAR-4, > 100 µM (inactive). Also, the GI50 was 43.7 µM (inactive) with SF-268; 43.4 µM (inactive) with SF-539; > 100 µM (inactive) in the assay on SN12C; > 100 µM (inactive) in the assay on SNB-75; > 100 µM (inactive) with UACC-62.
Consider `CC(=O)c1nc2ccccc2n1CC(=O)c1ccc([N+](=O)[O-])cc1`, for which the GI50 with A549 was 11.4 µM (inactive); with CAKI-1 it was 17.4 µM (inactive); in the assay with CCRF-CEM it was 9.84 µM (inactive); in the assay on EKVX it was > 100 µM (inactive); in the assay with HCT-116, 8.2 µM (inactive); in the assay with M14, 77.1 µM (inactive). The GI50 in the assay with MOLT-4 is 5.52 µM (inactive); in the assay on Malme-3M, 11.6 µM (inactive); in the assay on NCI-H522 it was 2.93 µM (inactive); in the assay with NCI/ADR-RES it was 13.4 µM (inactive); in the assay on OVCAR-3 it was 13.5 µM (inactive); with OVCAR-4, 34.8 µM (inactive). Moreover, the GI50 with SF-268 is 30.8 µM (inactive); in the assay on SF-539, 22.3 µM (inactive); in the assay on SN12C it was 17.8 µM (inactive); in the assay with SNB-75, 35.3 µM (inactive); in the assay on UACC-62, 10 µM (inactive).
With `CCOC(=O)c1c(N2CCN(C)CC2)[nH]c(=O)c(C(c2c(Cl)cccc2Cl)c2c(O)c(C(=O)OCC)c(N3CCN(C)CC3)[nH]c2=O)c1O`, the GI50 with A549 was 27.9 µM (inactive); in the assay on CAKI-1 it was 26.5 µM (inactive); in the assay with CCRF-CEM, 31 µM (inactive); in the assay with EKVX it was 14.5 µM (inactive); in the assay with HCT-116 it was 38.1 µM (inactive); in the assay on HOP-92, 19.1 µM (inactive). The GI50 with M14 was 30 µM (inactive); in the assay with MOLT-4 it was 23.5 µM (inactive); in the assay on Malme-3M it was 22.6 µM (inactive); in the assay on NCI-H522 it was 21.9 µM (inactive); in the assay on NCI/ADR-RES it was 71.1 µM (inactive); in the assay on OVCAR-3, 34.8 µM (inactive). The GI50 in the assay on OVCAR-4 is 21.5 µM (inactive); in the assay on SF-268, 24.2 µM (inactive); in the assay with SF-539, 19.4 µM (inactive); with SN12C it was 26.3 µM (inactive); in the assay on UACC-62, 21.5 µM (inactive).
Regarding `Cc1sc2c(c1C)/C(=N\O)c1cccn1-2`, the GI50 was 44.5 µM (inactive) with A549; 32.6 µM (inactive) in the assay on CAKI-1; 3.6 µM (inactive) in the assay on CCRF-CEM; 22.2 µM (inactive) with EKVX; 37.6 µM (inactive) in the assay on HCT-116; 64 µM (inactive) in the assay with M14. For the same compound, the GI50 in the assay on MDA-N was 40.6 µM (inactive); in the assay with MOLT-4, 17.3 µM (inactive); with Malme-3M it was 45.1 µM (inactive); with NCI-H522, 19 µM (inactive); with NCI/ADR-RES, 53.3 µM (inactive); in the assay on OVCAR-3, 42.9 µM (inactive). Moreover, the GI50 was 44.9 µM (inactive) with OVCAR-4; 34 µM (inactive) in the assay on SF-268; 38.5 µM (inactive) with SN12C; 16.2 µM (inactive) in the assay on SNB-75; 95.7 µM (inactive) in the assay on UACC-62.
Regarding `C#CCOC(=O)C=[N+]=[N-]`, the GI50 in the assay with A549, in the assay with CCRF-CEM, in the assay on EKVX, in the assay on HCT-116, in the assay on HOP-92 and in the assay on M14 was > 10 µM (inactive) throughout. In addition, the GI50 with MDA-N, in the assay on MOLT-4, with Malme-3M, in the assay on OVCAR-3, with SF-268 and with SF-539 was > 10 µM (inactive) each time. The GI50 with SN12C and in the assay with UACC-62 was > 10 µM (inactive) each time.
Regarding `CC(CO)(Nc1ccc([N+](=O)[O-])cc1[N+](=O)[O-])C(=O)O` (stereo unspecified), the GI50 in the assay on A549 is 38.3 µM (inactive); with CAKI-1, 33.8 µM (inactive); with EKVX it was 29.2 µM (inactive); in the assay on HCT-116, 63.2 µM (inactive); in the assay with M14, 80.2 µM (inactive); with Malme-3M, 18.7 µM (inactive). Further, the GI50 in the assay on NCI-H522 was 18.7 µM (inactive); in the assay on NCI/ADR-RES, 35.5 µM (inactive); in the assay on OVCAR-3, 22.2 µM (inactive); in the assay with SF-268, 19.3 µM (inactive); with SF-539 it was 34 µM (inactive); in the assay with SN12C it was 20.7 µM (inactive). For the same compound, the GI50 in the assay with UACC-62 is 33.7 µM (inactive).
Turning to `CCOC(=O)c1ccc(Nc2nc3ccccc3nc2-c2cccs2)cc1`, the GI50 was 66.4 µM (inactive) in the assay on A549; 21.9 µM (inactive) in the assay on CAKI-1; 41.8 µM (inactive) with CCRF-CEM; 35.3 µM (inactive) in the assay with EKVX; 80.5 µM (inactive) in the assay on HCT-116; 19 µM (inactive) in the assay with MDA-N. Besides, the GI50 is 23.6 µM (inactive) in the assay on MOLT-4; > 100 µM (inactive) in the assay on Malme-3M; 28.1 µM (inactive) in the assay with NCI-H522; 35.6 µM (inactive) with NCI/ADR-RES; 31 µM (inactive) in the assay on OVCAR-3; 93.5 µM (inactive) with SF-268. The GI50 was > 100 µM (inactive) in the assay on SF-539, 21.2 µM (inactive) in the assay with SN12C, 16.8 µM (inactive) in the assay with SNB-75 and 4.24 µM (inactive) in the assay on UACC-62.
On to `N=c1oc2c(Cl)cc(Cl)cc2cc1C(=O)Nc1ccccn1`, for which the GI50 was 44.4 µM (inactive) in the assay with A549; > 100 µM (inactive) in the assay on CAKI-1; 22 µM (inactive) in the assay on CCRF-CEM; 67.3 µM (inactive) with EKVX; 41.1 µM (inactive) with HCT-116; 33.7 µM (inactive) in the assay with M14. For the same compound, the GI50 was 62.1 µM (inactive) in the assay with MDA-N; 8.24 µM (inactive) in the assay on MOLT-4; > 100 µM (inactive) in the assay on Malme-3M; 66.4 µM (inactive) in the assay with NCI/ADR-RES; 24.6 µM (inactive) in the assay on OVCAR-3; 58.6 µM (inactive) with OVCAR-4. For the same compound, the GI50 in the assay on SF-268 was 33 µM (inactive); in the assay with SF-539 it was 40.9 µM (inactive); in the assay on SN12C, 99.3 µM (inactive); in the assay on SNB-75, 14.3 µM (inactive); in the assay with UACC-62 it was 20.6 µM (inactive).
`CN(C)CCCNc1ccnc2cccc([N+](=O)[O-])c12`: the GI50 in the assay with A549 was 12.8 µM (inactive); with CAKI-1 it was 13.3 µM (inactive); in the assay with CCRF-CEM it was 28.9 µM (inactive); with EKVX, 13.6 µM (inactive); in the assay with HCT-116, 13.7 µM (inactive); with HOP-92, 10.6 µM (inactive). Besides, the GI50 in the assay with M14 was 7.05 µM (inactive); in the assay on MDA-N, 17.2 µM (inactive); in the assay on MOLT-4, > 100 µM (inactive); in the assay with Malme-3M, 8.18 µM (inactive); in the assay on NCI-H522 it was 7.96 µM (inactive); in the assay with OVCAR-3, 5.22 µM (inactive). Besides, the GI50 in the assay on OVCAR-4 is 6.18 µM (inactive); with SF-268, 16.4 µM (inactive); in the assay with SF-539, 15.2 µM (inactive); in the assay with SN12C, 15.8 µM (inactive); with SNB-75 it was 24.1 µM (inactive).
`Clc1ccc2[nH]c(CCSCCc3nc4ccc(Cl)cc4[nH]3)nc2c1`: the GI50 is 10 µM (inactive) in the assay on A549; 4.55 µM (inactive) with CAKI-1; 10.8 µM (inactive) in the assay on CCRF-CEM; 16.9 µM (inactive) in the assay on EKVX; 6.21 µM (inactive) with HCT-116; 12.7 µM (inactive) in the assay on HOP-92. For the same compound, the GI50 in the assay on M14 is 13 µM (inactive); in the assay on MOLT-4 it was 3.7 µM (inactive); in the assay with NCI-H522 it was 12.2 µM (inactive); in the assay on OVCAR-4 it was 14.2 µM (inactive); with SF-539 it was 16.5 µM (inactive); in the assay with SN12C, 14.4 µM (inactive). Besides, the GI50 with SNB-75 is 19.5 µM (inactive); in the assay with UACC-62, 5.64 µM (inactive).
`CC1(C)C2CC(O)C1CCC2=O` (stereo unspecified): the GI50 in the assay on A549, in the assay with CAKI-1, in the assay on CCRF-CEM, in the assay with HCT-116, in the assay with M14 and with MDA-N was > 100 µM (inactive) throughout. In addition, the GI50 in the assay with MOLT-4, in the assay with Malme-3M, in the assay with NCI-H522, in the assay on NCI/ADR-RES, in the assay with OVCAR-3 and with OVCAR-4 was > 100 µM (inactive) in each case. Besides, the GI50 in the assay with SF-268, in the assay with SF-539, with SN12C, in the assay on SNB-75 and in the assay on UACC-62 was > 100 µM (inactive) in each case.
